Results as given in patent US6680025B2, “Device and method for photoactivation” (Cerus Corporation, priority 1989, dated 2004).

Legend:
calf thymus DNA [1] = test: Equilibrium dialysis dark binding (association constant); conditions: for Ka: 4° C., five days, dark, isopsoralen:DNA base pair 1:15
Protocol: Equilibrium Dialysis was used to determine the association (“dark binding”) constants of AMIP, AMDMIP and MIP with calf thymus DNA. The tritium labelled isopsoralens were used for the experiment. The method was a modification of that of Isaacs et al. Biochemistry 16, 1058-1066 (1977).
Spectrapor 2 dialysis tubing (Spectrum) was pre-treated by boiling in saturated sodium bicarbonate then rinsed thoroughly with double distilled water. Calf thymus DNA (Sigma) was prepared at a concentration of 50 μg/ml in 1×TE. The samples were prepared by placing 1.0 ml of the DNA solution inside the bag and using enough isopsoralen to provide an isopsoralen:DNA base pair ratio of 1:15. The samples were prepared with the tritiated isopsoralen (“Drug”) placed either inside or outside of the dialysis bag (each sample was placed in a scintillation vial containing a small magnetic stir bar). The samples were stirred at 4° C. for five days in the dark. After this period the bags were removed, opened, and the radioactivity inside and outside the bag determined by scintillation counting. The concentration of the DNA was determined by measuring optical density at 260 nm. The […] constant (Ka) was calculated from this information (Table 9). Preparing the samples in duplicate with the isopsoralen both inside and outside the dialysis bag provided a check that the system had come to equilibrium at the end of the dialysis period (the amount of isopsoralen inside and outside the bag at equilibrium should be, and was, the same in both cases).
The association constant, Ka is defined here as [formula]
for the reaction P+DNA P:DNA where P=free drug in solution, DNA=DNA binding site for the drug, and P:DNA=drug associated with the DNA. The following summarizes the Ka values determined for the compounds: […]

calf thymus DNA [2] = test: Covalent photobinding to calf thymus DNA (Example 38); format: binding; conditions: for actual concentration obtained empirically: nominal 100 μg/ml in calf thymus DNA/1×TE, counted after sitting overnight at room temperature
Protocol: FIG. 17 can again be referred to as a flow chart schematically showing the manner in which covalent binding was measured for the compounds synthesized by the methods of the present invention. ^3H-AMIP (3.1×10^5 cpm/μg), ^3H-AMDMIP (2.2×10^5 cpm/μg), and ^3H-MIP (2.1×10^5 cpm/μg) were added to 300 μl of calf thymus DNA (Sigma) in 1×TE buffer. All of the isopsoralen compounds were added at a nominal concentration of 100 μg/ml. However, actual concentrations obtained empirically (counted after sitting overnight at room temperature) were: ^3H-AMIP (105 μg/ml), ^3H-AMDMIP (115 μg/ml), and ^3H-MIP (<10 μg/ml).
To assess binding, three samples were prepared for each compound; two were irradiated (15 minutes at 25° C. with the CE-I device) while one was unirradiated as a control. Following irradiation, the samples were extracted four times with CHCl3 then precipitated twice. The final pellet was brought up in 2 ml of 1×TE buffer and resuspended by shaking at 40° C. overnight. 50 μl of each sample was then diluted to 0.5 mls with H2O. The concentration of DNA was determined by UV absorption (A260) and the amount of covalently bound isopsoralen (“adduct”) was determined by scintillation counting (3×100 μl aliquots). From these numbers, the following binding ratios (adducts: DNA base pair) were determined: […]

Taq I DNA polymerase = test: Primer extension on site-specific monoadducted 71-mer, Taq polymerase; format: biochemical, Thermus aquaticus; conditions: for Taq polymerase extension on 71-mer monoadduct template: 55° C., single extension
Protocol: In this experiment, monoadducted 71-mers (as well as unmodified 71-mers) were used in template-dependent enzymatic extension. AMIP, AMDMIP, and MIP 71-mer monoadducts were made as in Example 42. Extension was carried out as in Example 43 except that in this experiment, Taq I DNA polymerase, a thermostable DNA polymerase isolated from Thermus aquaticus (Stratagene, Inc., La Jolla, Calif.) was assessed for its ability to read past isopsoralens.
The reaction mixture was in 80 μl total volume and comprised 1×Taq buffer, 200 μM each of dNTP's, 0.05 units of Taq per μl of reaction volume; 1×10^−9 M in 71-mer MA; 1×10^−8 M in ^32P-labelled SK-39. Each reaction was set up with everything except Taq polymerase. The samples were initially heated to 95° C. for 5 mins, then incubated at 55° C. for 3 mins. The extension reaction was initiated by addition of Tas polymerase. At the indicated time points (0.5, 1.0, 5.0 mins), 20 μl of the reaction mix was removed to a tube containing 1 μl of 0.5 M EDTA to stop the reaction. All products were analyzed on a 20% polyacrylamide, 7 M urea gel followed by autoradiography.
This experiment investigated whether blocking of Tag polymerase by monoadducts is complete or whether monoadducts can be bypassed by the enzyme. In order to view the process of bypass syrthesis, it is necessary to cycle the extension reaction of the primer with the 71-mer templates. Cycling in this case consists of mixing the primer with the 71-mer template, adding Taq polymerase and appropriate reagents, extending, heating to induce strand separation, reannealing of the primer to the 71-mer template, extending again, and subsequent stand separation. This process can be repeated as necessary. During this process, only the complement of the 71-mer template is being synthesized. It is accumulating in a linear fashion with the number of thermal cycles (in contrast to PCR where both strands are being synthesized and accumulate geometrically).
The templates and reaction conditions were as in Example 44 above except that three samples were used for each monoadduct and each sample was tested under different conditions:
Samples (1): one sample for each monoadduct was used to carry out extension at 55° C. as in Example 43;
Samples (2): one sample for each monoadduct was used to carry out extension by the following series of steps: denaturing at 95° C.; incubating for 30 seconds at 55° C.; adding Taq polymerase for 3 minutes at 55° C.; cooling the reaction for 1 minute at 7° C.; stopping the reaction with EDTA for one minute at 95° C.
Samples (3): one sample for each monoadduct was used to carry out extension by repeating the following series of steps nine times: denaturing at 95° C.; incubating for 30 seconds at 55° C.; adding Taq polymerase for 3 minutes at 55° C.; cooling the reaction for 1 minute at 7° C. At the end, the reaction is stopped with EDTA for one minute at 95° C.
To investigate this question further, a new 5-MIP monoadducted 71-mer was prepared by repurification of the HPLC purified 5-MIP ronoadducted 15-mer by PAGE. In this way, more of the non-monoadducted 15-mer was removed prior to ligation. The purified 71-mer was then used as template in an extension experiment as described in Example 45. After 10 cycles, there was still evidence of extension product (FIG. 34).
Monoadducted 71-mer was constructed as described, but for HMT. Extension was carried out and analyzed as before on PAGE. […] Full length 71-mer is not made and a shorter strand corresponding to the position of the HMT adduct was made.

Klenow Polmerase = test: Primer extension on monoadducted 71-mer, Klenow polymerase; format: biochemical; conditions: 37° C., 0, 5 or 15 minutes
[3] = tritiated drug placed inside dialysis bag
[4] = tritiated drug placed outside dialysis bag
[5] = PAGE-repurified monoadducted 71-mer, after 10 cycles

SMILES	Ka (DNA association constant) relative to AMDMIP (calf thymus DNA [1]) [%]	Ka (calf thymus DNA [1]; [3])	Ka (calf thymus DNA [1]; [4])	actual concentration obtained empirically (calf thymus DNA [2]) [µg/mL]	modification density relative to that provided by AMDMIP (calf thymus DNA [2]; photobinding at the same concentration) [%]	Taq polymerase extension on 71-mer monoadduct template (Taq I DNA polymerase)	block of primer extension by 71-mer monoadduct (Klenow Polmerase)	full length extension product as share of total extension products (Taq I DNA polymerase; [5]) [%]	truncated extension products as share of total (Taq I DNA polymerase; [5]) [%]
NCc1cc2occc2c2oc(=O)ccc12 [AMIP, 5-Aminomethylisopsoralen]	28	2.96 × 10^4	2.21 × 10^4	105	43	stops at positions that are shorter than the full length 71-mer product	not complete stops	–	–
Cc1oc2ccc3c(C)cc(=O)oc3c2c1CN [AMDMIP, 4′-Aminomethyl-4,5′-dimethylisopsoralen]	–	7.66 × 10^4	1.07 × 10^5	115	–	stops at positions that are shorter than the full length 71-mer product	complete stop	–	–
Cc1cc2occc2c2oc(=O)ccc12 [MIP, 5-Methylisopsoralen]	–	9.08 × 10^3	2.07 × 10^3	< 10	–	stops at positions that are shorter than the full length 71-mer product	not complete stops	2.3	97.7
